≈ marks a conversion by molar mass, not a printed value. Where two headings read alike, the source gives them in different places.
Tests used:
Assay type in all cases: cell-based
[1] = system: Staphylococcus aureus 209 P; test: Minimum Inhibitory Concentration, Staphylococcus aureus 209 P; settings: Staphylococcus aureus 209 P; read-out: Minimum Inhibitory Concentration
Experimental: (§1) anti-microbial activity tests were carried out on the compounds obtained in the Examples.

[2] = system: Staphylococcus aureus FS 289; test: Minimum Inhibitory Concentration, Staphylococcus aureus FS 289; settings: FS289; Staphylococcus aureus FS 289, strain resistant to penicillin; read-out: Minimum Inhibitory Concentration
Experimental: as §1
*Staphylococcus aureus FS 289: strain resistant to penicillin

Escherichia coli NIHJ = test: Minimum Inhibitory Concentration, Escherichia coli NIHJ; settings: read-out: Minimum Inhibitory Concentration
Experimental: as §1

[3] = system: Klebsiella pneumoniae 602; test: Minimum Inhibitory Concentration, Klebsiella pneumoniae 602
Experimental: as §1

Proteus vulgaris HX 19 = test: Minimum Inhibitory Concentration, Proteus vulgaris HX 19; settings: HX19; Proteus vulgaris HX 19; read-out: Minimum Inhibitory Concentration
Experimental: as §1

[4] = system: Pseudomonas aeruginosa 104; test: Minimum Inhibitory Concentration, Pseudomonas aeruginosa 104; settings: Pseudomonas aeruginosa 104; read-out: Minimum Inhibitory Concentration
Experimental: as §1

Serratia No. 72 = test: Minimum Inhibitory Concentration, Serratia No. 72
Experimental: as §1

[5] = system: Enterobacter aerogeneus No. 75; test: Minimum Inhibitory Concentration, Enterobacter aerogeneus No. 75; settings: Enterobacter aerogeneus No. 75; read-out: Minimum Inhibitory Concentration
Experimental: as §1

[6] = Klebsiella pneumoniae, 602, Klebsiella pneumoniae 602, read-out: Minimum Inhibitory Concentration

| Structure (SMILES) | MIC [1] | MIC [2] | MIC (Escherichia coli NIHJ; Escherichia coli NIHJ) | MIC [3, 6] | MIC (Proteus vulgaris HX 19) | MIC [4] | MIC (Serratia No. 72) | MIC [5] | MIC (Escherichia coli NIHJ; Escherichia coli) | MIC ([3]; Klebsiella pneumoniae, 602, read-out: Minimum Inhibitory Concentration) |
| --- | --- | --- | --- | --- | --- | --- | --- | --- | --- | --- |
| CC(=O)OCC1=C(C(=O)O)N2C(=O)C(NC(=O)C(NC(=O)c3cnccc3O)c3cccc(O)c3)C2SC1 (centres unmarked) [Example 114] | 0.39 µg/mL (≈ 0.719 µM) | 6.25 µg/mL (≈ 11.5 µM) | 12.5 µg/mL (≈ 23 µM) | 12.5 µg/mL (≈ 23 µM) | 0.39 µg/mL (≈ 0.719 µM) | 6.25 µg/mL (≈ 11.5 µM) | > 200 µg/mL | 25 µg/mL (≈ 46.1 µM) | – | – |
| CC(=O)OCC1=C(C(=O)O)N2C(=O)C(NC(=O)C(NC(=O)c3cccnc3O)c3ccc(O)cc3)C2SC1 (centres unmarked) [Example 115] | 0.39 µg/mL (≈ 0.719 µM) | 6.25 µg/mL (≈ 11.5 µM) | 12.5 µg/mL (≈ 23 µM) | 25 µg/mL (≈ 46.1 µM) | 0.78 µg/mL (≈ 1.44 µM) | 12.5 µg/mL (≈ 23 µM) | > 200 µg/mL | 25 µg/mL (≈ 46.1 µM) | – | – |
| CC(=O)OCC1=C(C(=O)O)N2C(=O)C(NC(=O)[C@H](NC(=O)c3ccnnc3O)c3ccc(O)cc3)C2SC1 (some centres unmarked) [Example 116] | 0.39 µg/mL (≈ 0.718 µM) | 3.13 µg/mL (≈ 5.76 µM) | 12.5 µg/mL (≈ 23 µM) | 6.25 µg/mL (≈ 11.5 µM) | 0.2 µg/mL (≈ 0.368 µM) | 6.25 µg/mL (≈ 11.5 µM) | > 200 µg/mL | 25 µg/mL (≈ 46 µM) | – | – |
| CC(=O)OCC1=C(C(=O)O)N2C(=O)C(NC(=O)[C@H](NC(=O)c3cnccc3O)c3ccc(O)c(Cl)c3)C2SC1 (some centres unmarked) [Example 117] | 0.39 µg/mL (≈ 0.676 µM) | 6.25 µg/mL (≈ 10.8 µM) | 12.5 µg/mL (≈ 21.7 µM) | 12.5 µg/mL (≈ 21.7 µM) | 0.2 µg/mL (≈ 0.347 µM) | 6.25 µg/mL (≈ 10.8 µM) | 100 µg/mL (≈ 173 µM) | 25 µg/mL (≈ 43.3 µM) | – | – |
| CC(=O)OCC1=C(C(=O)O)N2C(=O)C(NC(=O)[C@H](NC(=O)c3cncnc3O)c3ccc(O)cc3)C2SC1 (some centres unmarked) [Example 118] | 0.39 µg/mL (≈ 0.718 µM) | 6.25 µg/mL (≈ 11.5 µM) | 12.5 µg/mL (≈ 23 µM) | 25 µg/mL (≈ 46 µM) | 0.39 µg/mL (≈ 0.718 µM) | 6.25 µg/mL (≈ 11.5 µM) | > 200 µg/mL | 25 µg/mL (≈ 46 µM) | – | – |
| CC(=O)OCC1=C(C(=O)O)N2C(=O)C(NC(=O)[C@H](NC(=O)c3cnc(O)nc3O)c3ccc(O)cc3)C2SC1 (some centres unmarked) [Example 119] | 0.39 µg/mL (≈ 0.697 µM) | 6.25 µg/mL (≈ 11.2 µM) | 6.25 µg/mL (≈ 11.2 µM) | 25 µg/mL (≈ 44.7 µM) | 0.39 µg/mL (≈ 0.697 µM) | 6.25 µg/mL (≈ 11.2 µM) | > 200 µg/mL | 25 µg/mL (≈ 44.7 µM) | – | – |
| CC(=O)OCC1=C(C(=O)O)N2C(=O)C(NC(=O)[C@H](NC(=O)c3cnc4cccnc4c3O)c3ccc(O)cc3)C2SC1 (stereo partly drawn) [Example 120, 7-[D-α-(4-Hydroxy-1,5-naphthyridine-3-carbonamido)-α-hydroxyphenylacetamido]cephalosporanic Acid] | 0.78 µg/mL (≈ 1.31 µM) | 6.25 µg/mL (≈ 10.5 µM) | – | – | 0.39 µg/mL (≈ 0.657 µM) | 6.25 µg/mL (≈ 10.5 µM) | 50 µg/mL (≈ 84.2 µM) | 6.25 µg/mL (≈ 10.5 µM) | 3.13 µg/mL (≈ 5.27 µM) | 1.56 µg/mL (≈ 2.63 µM) |
| CC(=O)OCC1=C(C(=O)O)N2C(=O)C(NC(=O)[C@H](NC(=O)c3cnc4cccnc4c3O)c3ccc(O)c(Cl)c3)C2SC1 (some centres unmarked) [Example 122] | 0.78 µg/mL (≈ 1.24 µM) | 6.25 µg/mL (≈ 9.95 µM) | 3.13 µg/mL (≈ 4.98 µM) | 3.13 µg/mL (≈ 4.98 µM) | 0.39 µg/mL (≈ 0.621 µM) | 6.25 µg/mL (≈ 9.95 µM) | 50 µg/mL (≈ 79.6 µM) | 6.25 µg/mL (≈ 9.95 µM) | – | – |
| CC(=O)OCC1=C(C(=O)O)N2C(=O)C(NC(=O)[C@H](NC(=O)c3cnc4nc(C)ccc4c3O)c3ccc(O)cc3)C2SC1 (some centres unmarked) [Example 123] | 0.78 µg/mL (≈ 1.28 µM) | 6.25 µg/mL (≈ 10.3 µM) | 6.25 µg/mL (≈ 10.3 µM) | 3.13 µg/mL (≈ 5.15 µM) | 0.78 µg/mL (≈ 1.28 µM) | 6.25 µg/mL (≈ 10.3 µM) | 100 µg/mL (≈ 165 µM) | 12.5 µg/mL (≈ 20.6 µM) | – | – |
| CC(=O)OCC1=C(C(=O)O)N2C(=O)C(NC(=O)[C@H](NC(=O)c3nnc4ccccc4c3O)c3ccc(O)cc3)C2SC1 (stereo partly drawn) [Example 124, 7-[D-α-(4-hydroxycinnoline-3-carbonamido)-α-p-hydrxyphenylacetamido]cephalosporanic acid] | 0.78 µg/mL (≈ 1.31 µM) | 6.25 µg/mL (≈ 10.5 µM) | 12.5 µg/mL (≈ 21.1 µM) | 12.5 µg/mL (≈ 21.1 µM) | 0.78 µg/mL (≈ 1.31 µM) | 12.5 µg/mL (≈ 21.1 µM) | 100 µg/mL (≈ 168 µM) | 25 µg/mL (≈ 42.1 µM) | – | – |
| Cc1nnc(SCC2=C(C(=O)O)N3C(=O)C(NC(=O)[C@H](NC(=O)c4cnccc4O)c4ccc(O)cc4)C3SC2)s1 (stereo partly drawn) [Example 125, 7-[D-α-(4-Hydroxypyridine-3-carbonamido)-α-p-hydroxyphenylacetamido]-3-(2-methyl-1,3,4-thiadiazol-5-yl)thiomethyl-3-cephem-4-carboxylic Acid] | 0.39 µg/mL (≈ 0.634 µM) | 6.25 µg/mL (≈ 10.2 µM) | 6.25 µg/mL (≈ 10.2 µM) | 6.25 µg/mL (≈ 10.2 µM) | 0.1 µg/mL (≈ 0.163 µM) | 12.5 µg/mL (≈ 20.3 µM) | 50 µg/mL (≈ 81.3 µM) | 12.5 µg/mL (≈ 20.3 µM) | – | – |
| Cn1nnnc1SCC1=C(C(=O)O)N2C(=O)C(NC(=O)[C@H](NC(=O)c3cnccc3O)c3ccc(O)cc3)C2SC1 (stereo partly drawn) [Example 126, 7-[D-α-(4-Hydroxypyridine-3-carbonamido)-α-p-hydroxyphenylacetamido]-3-(1-methyltetrazol-5-yl)thiomethyl-3-cephem-4-carboxylic acid] | 0.39 µg/mL (≈ 0.651 µM) | 6.25 µg/mL (≈ 10.4 µM) | 6.25 µg/mL (≈ 10.4 µM) | 12.5 µg/mL (≈ 20.9 µM) | 0.2 µg/mL (≈ 0.334 µM) | 6.25 µg/mL (≈ 10.4 µM) | 100 µg/mL (≈ 167 µM) | 12.5 µg/mL (≈ 20.9 µM) | – | – |
| Cc1nnc(SCC2=C(C(=O)O)N3C(=O)C(NC(=O)[C@H](NC(=O)c4ccnnc4O)c4ccc(O)cc4)C3SC2)s1 (some centres unmarked) [Example 127] | 0.39 µg/mL (≈ 0.633 µM) | 6.25 µg/mL (≈ 10.2 µM) | 6.25 µg/mL (≈ 10.2 µM) | 6.25 µg/mL (≈ 10.2 µM) | 0.2 µg/mL (≈ 0.325 µM) | 6.25 µg/mL (≈ 10.2 µM) | 50 µg/mL (≈ 81.2 µM) | 12.5 µg/mL (≈ 20.3 µM) | – | – |
| Cn1nnnc1SCC1=C(C(=O)O)N2C(=O)C(NC(=O)[C@H](NC(=O)c3ccnnc3O)c3ccc(O)cc3)C2SC1 (some centres unmarked) [Example 128] | 0.39 µg/mL (≈ 0.65 µM) | 6.25 µg/mL (≈ 10.4 µM) | 6.25 µg/mL (≈ 10.4 µM) | 6.25 µg/mL (≈ 10.4 µM) | 0.39 µg/mL (≈ 0.65 µM) | 6.25 µg/mL (≈ 10.4 µM) | 50 µg/mL (≈ 83.4 µM) | 12.5 µg/mL (≈ 20.8 µM) | – | – |
| Cc1nnc(SCC2=C(C(=O)O)N3C(=O)C(NC(=O)[C@H](NC(=O)c4cnc5cccnc5c4O)c4ccc(O)cc4)C3SC2)s1 (some centres unmarked) [Example 129] | 0.78 µg/mL (≈ 1.17 µM) | 3.13 µg/mL (≈ 4.7 µM) | 1.56 µg/mL (≈ 2.34 µM) | 1.56 µg/mL (≈ 2.34 µM) | 0.1 µg/mL (≈ 0.15 µM) | 3.13 µg/mL (≈ 4.7 µM) | 12.5 µg/mL (≈ 18.8 µM) | 3.13 µg/mL (≈ 4.7 µM) | – | – |
| O=C(O)C1=C(CSc2nncs2)CSC2C(NC(=O)[C@H](NC(=O)c3cnc4cccnc4c3O)c3ccc(O)cc3)C(=O)N12 (some centres unmarked) [Example 130] | 0.78 µg/mL (≈ 1.2 µM) | 3.13 µg/mL (≈ 4.8 µM) | 1.56 µg/mL (≈ 2.39 µM) | 1.56 µg/mL (≈ 2.39 µM) | 0.1 µg/mL (≈ 0.153 µM) | 3.13 µg/mL (≈ 4.8 µM) | 12.5 µg/mL (≈ 19.2 µM) | 3.13 µg/mL (≈ 4.8 µM) | – | – |
| Cn1nnnc1SCC1=C(C(=O)O)N2C(=O)C(NC(=O)[C@H](NC(=O)c3cnc4cccnc4c3O)c3ccc(O)cc3)C2SC1 (some centres unmarked) [Example 131] | 0.78 µg/mL (≈ 1.2 µM) | 3.13 µg/mL (≈ 4.82 µM) | 1.56 µg/mL (≈ 2.4 µM) | 0.78 µg/mL (≈ 1.2 µM) | 0.1 µg/mL (≈ 0.154 µM) | 3.13 µg/mL (≈ 4.82 µM) | 12.5 µg/mL (≈ 19.2 µM) | 3.13 µg/mL (≈ 4.82 µM) | – | – |
| Cn1nnnc1SCC1=C(C(=O)O)N2C(=O)C(NC(=O)[C@H](NC(=O)c3cnc4cccnc4c3O)c3ccc(O)c(Cl)c3)C2SC1 (some centres unmarked) [Example 132] | 0.78 µg/mL (≈ 1.14 µM) | 3.13 µg/mL (≈ 4.58 µM) | 3.13 µg/mL (≈ 4.58 µM) | 1.56 µg/mL (≈ 2.28 µM) | 0.1 µg/mL (≈ 0.146 µM) | 6.25 µg/mL (≈ 9.14 µM) | 25 µg/mL (≈ 36.5 µM) | 3.13 µg/mL (≈ 4.58 µM) | – | – |
| Cn1nnc(SCC2=C(C(=O)O)N3C(=O)C(NC(=O)[C@H](NC(=O)c4cnc5cccnc5c4O)c4ccc(O)cc4)C3SC2)n1 (some centres unmarked) [Example 133] | 0.78 µg/mL (≈ 1.2 µM) | 3.13 µg/mL (≈ 4.82 µM) | 3.13 µg/mL (≈ 4.82 µM) | 1.56 µg/mL (≈ 2.4 µM) | 0.1 µg/mL (≈ 0.154 µM) | 3.13 µg/mL (≈ 4.82 µM) | 25 µg/mL (≈ 38.5 µM) | 3.13 µg/mL (≈ 4.82 µM) | – | – |
